Results on two compounds are retold here after patent US20210154156A1, “APPLICATION OF COMPOUND IN INHIBITING AB ACCUMULATION AND TREATING ALZHEIMER'S DISEASE” (NORTHEAST NORMAL UNIVERSITY, priority 2018, published 2021).

One data set addresses T1, Aβ protein monomer (Homo sapiens, UniProt P05067).
T1 construct: purchased Nanjing Elutrian Biological Co. Ltd
Briefly: Circular dichroism spectrum experiment (CD) of Aβ β-sheet formation. Type of data set: biochemical. Conditions: Aβ 20 uM; drug 10, 20, 40 uM; 12 hours 37° C. The method, then: The A beta monomer was mixed with a drug, the final concentration of Aβ was 20 uM, the final concentrations of the drug were 0 uM, 10 uM, 20 uM and 40 uM respectively, and after 12 hours incubation at 37° C., a J-810 spectrometer (Jayasco, Japan) was used for detection. The wavelength range was 190-250 nm, the resolution was 0.5 nm, the spectrum width was 2 nm, the scanning speed was 100 nm/min, the response time was 1 s, and the measuring temperature was normal temperature. The solution was added to a quartz cuvette with an optical path of 0.1 mm for measurement, and each experiment was repeated three times. Subtracting the buffer curve from each scan curve as the experimental result, each experiment was repeated three times, and the average value was given.
On the technique in general: CD spectra are sensitive to the conformation of chiral molecules.

Data set [1] concerns APP/PS1 double transgenic mice. As to the kind of experiment: Morris water maze in APP/PS1 transgenic mice. Conditions: intragastric administration for 2 months. Type of data set: in vivo. The source says: (§1) The wild-type (WT) and APP/PS1 double transgenic mice used in the experiment of the present invention were purchased from the Model Animal Research Institute of Nanjing University, and the mouse genes were identified in strict accordance with the PCR method provided.
In the Morris water maze experiment, the mouse water maze training was two days (data not recorded). The mice were placed into the pool from 4 entry points (quadrants) facing the pool wall. The platform was hidden 1 cm underwater, and the water temperature was kept at 23° C. , and the training lasted for 2 minutes. […] The experiment phase started from the third day, and the experiment was continued for 6 days. Each mouse was tested once a day. During the experiment, the mice were respectively placed into the pool from 4 entry points (quadrants) facing the pool wall.
The time was recorded from the mice entering the water to the mice finding and staying in the underwater hidden platform. That was called as the incubation period. On the eighth day, the platform was removed, and each mouse was launched from the farthest position of the original platform and swam freely for 2 minutes. The swimming time of the animal in the target quadrant (the area where the platform located), the number of times of traversing the platform, the path and other main parameters were tracked and recorded by the miniature camera and analyzed.

The target of the next data set is T2, Aβ42 monomers (Homo sapiens, UniProt P05067).
T2 construct: purchased Nanjing Elutrian Biological Co. Ltd
T2 sequence (P05067 672-713 limits assumed): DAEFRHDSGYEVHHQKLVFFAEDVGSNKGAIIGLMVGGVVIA
Briefly: Thioflavin T test (ThT) of Aβ42 monomer aggregation. Type of data set: biochemical. Conditions: Aβ 20 uM; drug 10, 20, 40 uM; 37° C. 24 hours; concentration-dependent. The method, then:
The protein A beta protein was provided by Nanjing Elutrian Biological Co. Ltd. and the purity was greater than 95%. The compound macroflavin was provided by Shanghai Yuan-Ye biological company. The Aβ monomer powder was stored at −80° C., standing for 30 minutes at room temperature for the first time, then diluted with hexafluoroisopropanol (HFIP) to 1.0 mg/mL. It stood for at least 2 hours, carrying out ultrasonic 30 minutes to destroy the existing multi-polymer structure, standing and drying at low temperature, was immediately stored at −20° C. Thioflavin T was purchased from Sigma (cargo number T3516-5 G). 0.032 g of THT powder was weighed and dissolved in 20 mL of 20 mM Tris-HCl (pH 7.4) solution to obtain a 5 mM THT mother liquor, and was diluted to 5 uM when used.

Data set [2] relates to human neuroma blasts SH-SY5Y. As to the kind of experiment: MTT test of Aβ42 oligomer-mediated neurotoxicity in SH-SY5Y. The data set is classed as cell-based. How it is done: The cells used in the Aβ42 oligomer-mediated neurotoxicity damage experiment were human neuroma blasts SH-SY5Y, incubated in DME medium of 10% FBS at 37° C. The control group without Aβ protein and the experimental group with added drug were cultured overnight at 37° C. with slow shaking, and transferred to a 96-well cell culture plate containing SH-SY5Y. The final concentration of Aβ protein was 1 uM and the final concentration of drug was 0.25 uM. 0.5 uM, 1 uM and 2 uM, three parallel holes for each concentration, action time 3 hours, MTT method 490 nm wavelength tested 5 times to analyze cell proliferation.
(In general: Tetrazolium assays rely on reduction of a dye to a coloured formazan, in cell work by metabolically active cells.)

A further data set deals with T3, Aβ42 monomer (Homo sapiens, UniProt P05067).
T3 construct: purchased Nanjing Elutrian Biological Co. Ltd
T3 sequence (P05067 672-713 limits assumed): as above
Briefly: Transmission electron microscopy (TEM) of Aβ42 fiber formation. Conditions: 37° C. 24 hours; concentration-dependent. The data set is classed as biochemical. How it is done: The preparation was the same as that of Example 1. Then, the Aβ protein sample was incubated at 37° C. for 24 hours, dropped on the surface of a 300 mesh carbon film copper mesh, dried in air, dyed with 2% (w/v) phosphotungstate sodium salt negative for 30 seconds, standing at room temperature for about 4 hours, then the JEM-100CXII transmission electron microscope system (JEOL Inc., Tokyo, Japan) was used to detect and take pictures with an acceleration voltage of 80 kV.

Another data set deals with T4, formed Aβ fibers (Homo sapiens, UniProt P05067).
T4 construct: purchased Nanjing Elutrian Biological Co. Ltd
T4 sequence (P05067 672-713 limits assumed): as above
As to the kind of experiment: Depolymerization of the formed Aβ fibrous structure (ThT and TEM). The data set is classed as biochemical. The method, then:
The preparation was the same as that shown in Examples 1 and 2, except that the Aβ42 protein was first incubated at 37° C. for 48 hours, then the drug effect was added, the sample was taken at −20 ° C. every 6 hours, after 48 hours, using all of the samples for ThaT and TEAM tests.

Data set [3] relates to APP/PS1 double transgenic mice. Briefly: Y maze in APP/PS1 transgenic mice. The data set is classed as in vivo. Conditions: after two months of treatment.
Description: as §1
In the Y maze experiment, three black striped long arms were marked A, B, and C with the same appearance were combined in a Y shape. The mouse was put in the A arm, and recorded as an error if it turned back from the other long arm during free movement, such as ABA, BCB, etc., recalculated with this arm as the starting point, such as ABACBABCBA. The experiment time for each mouse lasted 8 minutes. When the experiment was completed, the Y labyrinth was cleaned and disinfected with alcohol, and the experiment was performed on the next mouse after drying.

For the next data set, the system named is APP/PS1 transgenic mice. As to the kind of experiment: Thioflavin S and Congo red staining of brain Aβ plaques in APP/PS1 transgenic mice. The data set is classed as in vivo.
Description: as §1
10-month-old AD mice were anesthetized with 0.4% pentobarbital sodium. Blood was taken by perfusing the atria. 4% paraformaldehyde was perfused for whole body fixation. The brain tissue was taken and weighed. The hemibrains were put into 4% paraformaldehyde solution and used for histopathology. The other half was stored in a cryotube at −80° C. for biochemical analysis. The brain tissues fixed with 4% paraformaldehyde were embedded in wax and sliced. The plaques in the cerebral cortex and hippocampus were stained with Thioflavin S and Congo Red. Pathological images were obtained by digital microscope and fluorescence microscope and quantitatively analyzed.

Counter-ions that a name gives are not always drawn.

T1 sequence (P05067 672-713 limits assumed): as above

On to `COc1cc2c(cc1OC)C(=O)C(CC1CCN(Cc3ccccc3)CC1)C2` (stereo not drawn) [Arishen, donepezil hydrochloride, reference compound], for which the “Formation of the β-sheet structure of Aβ monomer (CD)” value at Aβ protein monomer is given as “had no effect”. In data set [1], the “Effect on improving symptoms of AD mice (Morris water maze)” value is reported as “limited effect”.
In the case of `Cc1cc(O)c2c(c1)C(=O)c1cc(O)cc(O)c1C2=O` [emodin, 1,3,8-trihydroxy-6-methylanthracene-9, 10-dione], the “ThT fluorescence intensity (Aβ42 monomer aggregation) vs control group without medicine” value on Aβ42 monomers was “significantly decreased”. Also, the “MTT absorbance value (protection from Aβ42 oligomer-mediated neurocytotoxicity) vs control group without drug” value in data set [2] (Aβ 1 uM, drug 0.25, 0.5, 1, 2 uM, 3 hours, 490 nm) was “increased significantly”. Besides, the “MTT effect compared with positive control curcumin” value in data set [2] (when the concentration was low) is on record as “stronger than that of the positive control curcumin”. Besides, the “Aβ protein fiber density, length and width (TEM)” value on Aβ42 monomer is listed as “decreased significantly”. For the same compound, the “Formation of the β-sheet structure of Aβ monomer (CD)” value at Aβ protein monomer is listed as “significantly reduce”. In addition, the “ThT fluorescence intensity of pre-formed Aβ fibers vs non-dosing control” value at formed Aβ fibers (Aβ42 pre-incubated 37° C. 48 hours, then drug, sampled every 6 hours to 48 hours) is given as “remained basically unchanged”. For the same compound, at formed Aβ fibers (after 48 hours of treatment), the “Depolymerization of formed Aβ fibers (TEM)” value is “could not depolymerize”. For the same compound, the “Incubation period for AD mice to find the platform (Morris water maze)” value in data set [1] (8-month-old APP/PS1 mice) was “significantly reduced”. Besides, the “Number of times AD mice crossed the virtual platform (Morris water maze)” value in data set [1] (platform removed) is recorded as “significantly improved”. Also, the “Y maze effect compared with Arishen treatment group” value in data set [3] is “better than the Arishen treatment group”. The “Correct rate in Y maze of AD mice” value in data set [3] (saline AD about 58%, WT about 82%) is on record as “increased significantly”. Also, the “Plaque effect compared with positive control nourishing blood serum brain drug group” value with APP/PS1 transgenic mice (10-month-old AD mice) is “slightly better”. Besides, the “Number of stained Aβ deposition plaques in cortex or hippocampus (Thioflavin S, Congo red) vs normal saline AD mice” value in the data set on APP/PS1 transgenic mice (10-month-old AD mice after 2 months intragastric administration) was “statistically significant reduction”.
